# Measurements: PMC5896380, “Selective imaging of cathepsin L in breast cancer by fluorescent activity-based probes” (Chemical Science, 2018)
# Read-outs that look alike come from different tables or passages of the source. Non-standard residues stand in square brackets, D forms with d. *: point of attachment. Phe(F5) = N[C@@H](Cc1c(F)c(F)c(F)c(F)c1F)C(=O)O; Phe(3,4-F2) = N[C@@H](Cc1ccc(F)c(F)c1)C(=O)O; Phe(3-Cl) = N[C@@H](Cc1cccc(Cl)c1)C(=O)O; Phe(2-Cl) = N[C@@H](Cc1ccccc1Cl)C(=O)O; Phe(3-F) = N[C@@H](Cc1cccc(F)c1)C(=O)O; Phe(4-F) = N[C@@H](Cc1ccc(F)cc1)C(=O)O; ACC = NC(=O)Cc1cc(=O)oc2cc(N*)ccc12; hArg = N=C(N)NCCCC[C@H](N)C(=O)O; Orn = NCCC[C@H](N)C(=O)O; Dap = NC[C@H](N)C(=O)O; Meb = Cc1ccc(C*)cc1; Bn = c1ccc(C*)cc1
# What was measured:
# Type in all cases: biochemical
# cathepsin L = target: T1, cathepsin L (Homo sapiens, UniProt P07711); test: Kinetic parameters of ACC substrates with cathepsin L; conditions: for kcat/KM Cath-L: Fig. 5B, triplicate
# T1 construct: made in house
# T1 sequence (P07711 114-333): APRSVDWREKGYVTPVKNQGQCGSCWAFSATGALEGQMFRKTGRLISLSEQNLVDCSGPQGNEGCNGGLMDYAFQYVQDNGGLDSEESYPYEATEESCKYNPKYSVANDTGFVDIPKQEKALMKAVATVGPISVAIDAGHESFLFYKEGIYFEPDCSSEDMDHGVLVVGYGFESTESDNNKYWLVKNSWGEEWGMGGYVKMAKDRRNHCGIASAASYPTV
# Protocol: (§1) All kinetic experiments were performed using fMax (Molecular Devices) and CLARIOStar (BMG LABTECH) spectrofluorimeters operating in kinetic mode using 96-well plates. ACC-labeled substrates were screened using 355 nm and 460 nm wavelengths (excitation and emission, respectively). […] The buffer was prepared at room temperature and the enzyme kinetic studies were performed at 37 °C.
# (§2) Classic substrate velocity plots were analyzed according to Michaelis–Menten kinetics and a detailed protocol for the determination of kinetic parameters for ACC-tagged substrates is found elsewhere.[56] […] Experiments were repeated at least three times and results are presented as an average. The SDs were below 15%.
# cathepsin V = target: T2, cathepsin V (Homo sapiens, UniProt O60911); test: Kinetic parameters of ACC substrates with cathepsin V; conditions: for kcat/KM Cath-V: Fig. 5B, pH 5.5, 37 °C, cathepsin V 10–20 nM, triplicate, SD below 15%; for kcat Cat V / kcat/KM Cat V / Km: Table S7, four independent experiments, S.D. below 15%; for Km: read-out: KM Cat V
# T2 construct: made in house
# T2 sequence (O60911 114-334): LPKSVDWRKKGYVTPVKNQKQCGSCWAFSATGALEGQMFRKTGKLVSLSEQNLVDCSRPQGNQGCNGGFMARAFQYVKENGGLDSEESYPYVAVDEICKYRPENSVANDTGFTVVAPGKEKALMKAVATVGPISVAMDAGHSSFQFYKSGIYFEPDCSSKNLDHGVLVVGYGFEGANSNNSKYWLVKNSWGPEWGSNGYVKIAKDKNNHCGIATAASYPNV
# Protocol: as §1, §2
# cathepsin B = target: T3, cathepsin B (Homo sapiens, UniProt P07858); test: Kinetic parameters of ACC substrates with cathepsin B; conditions: for kcat/KM Cath-B: Fig. 5B, pH 5.5, 37 °C, cathepsin B 4–15 nM, triplicate, SD below 15%; for kcat Cat B / kcat/KM Cat B / Km: Table S7, four independent experiments, S.D. below 15%; for Km: read-out: KM Cat B
# T3 construct: made in house
# Protocol: as §1, §2
# cathepsin K = target: T4, cathepsin K (Homo sapiens, UniProt P43235); test: Kinetic parameters of ACC substrates with cathepsin K; conditions: for kcat/KM Cath-K: Fig. 5B, pH 5.5, 37 °C, cathepsin K 5–20 nM, triplicate, SD below 15%
# T4 construct: made in house
# T4 sequence (P43235 115-329): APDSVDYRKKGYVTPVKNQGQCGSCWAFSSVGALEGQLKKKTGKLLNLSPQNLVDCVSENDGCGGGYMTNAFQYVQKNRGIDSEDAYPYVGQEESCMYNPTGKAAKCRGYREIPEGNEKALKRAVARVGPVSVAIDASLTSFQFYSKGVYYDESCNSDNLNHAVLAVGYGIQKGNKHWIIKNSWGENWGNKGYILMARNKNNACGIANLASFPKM
# Protocol: as §1, §2
# cathepsin S = target: T5, cathepsin S (Homo sapiens, UniProt P25774); test: Kinetic parameters of ACC substrates with cathepsin S; conditions: for kcat/KM Cath-S: Fig. 5B, pH 5.5, 37 °C, cathepsin S 5–20 nM, triplicate, SD below 15%; for kcat/KM Cat S: Table S7, four independent experiments, S.D. below 15%
# T5 construct: made in house
# T5 sequence (P25774 115-331): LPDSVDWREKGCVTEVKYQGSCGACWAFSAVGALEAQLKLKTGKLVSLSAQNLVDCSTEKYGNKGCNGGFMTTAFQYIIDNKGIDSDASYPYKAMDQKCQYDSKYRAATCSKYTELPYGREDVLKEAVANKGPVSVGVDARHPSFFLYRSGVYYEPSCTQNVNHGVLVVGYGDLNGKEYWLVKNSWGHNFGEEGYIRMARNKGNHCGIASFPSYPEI
# Protocol: as §1, §2
# [1] = pH 5.5, 37 °C, cathepsin L 0.1–0.5 nM, SD below 15%
# [2] = Table S7, four independent experiments, S.D. below 15%
# [3] = Table S7, four independent experiments, S.D. below 15%, read-out: KM Cat L
# [4] = Fig. 4B, ACC substrates, 100 mM sodium acetate, 100 mM NaCl, 10 mM DTT, 1 mM EDTA, pH 5.5, 37 °C, cathepsin L 0.1–0.5 nM, average of at least three, SD below 15%
# [5] = Table S2, cathepsin L, four independent experiments, S.D. below 15%
# [6] = Table S2, cathepsin L, four independent experiments, S.D. below 15%, read-out: KM
Substance,kcat/KM Cath-L (cathepsin L; [1]),kcat/KM Cath-V (cathepsin V),kcat/KM Cath-B (cathepsin B),kcat/KM Cath-K (cathepsin K),kcat/KM Cath-S (cathepsin S),other results
Ac-H[dK][Phe(F5)]R-{ACC} (SMILES CC(=O)N[C@@H](Cc1c[nH]cn1)C(=O)N[C@H](CCCCN)C(=O)N[C@@H](Cc1c(F)c(F)c(F)c(F)c1F)C(=O)N[C@@H](CCCNC(=N)N)C(=O)Nc1ccc2c(CC(N)=O)cc(=O)oc2c1),"715,000 M^-1s^-1","1,010 M^-1s^-1",175 M⁻¹ s⁻¹,29 M⁻¹ s⁻¹,< 10 M⁻¹ s⁻¹,
Ac-H[dL][Phe(F5)]R-{ACC} (SMILES CC(=O)N[C@@H](Cc1c[nH]cn1)C(=O)N[C@H](CC(C)C)C(=O)N[C@@H](Cc1c(F)c(F)c(F)c(F)c1F)C(=O)N[C@@H](CCCNC(=N)N)C(=O)Nc1ccc2c(CC(N)=O)cc(=O)oc2c1),"405,900 M^-1s^-1",353 M⁻¹ s⁻¹,135 M⁻¹ s⁻¹,< 10 M⁻¹ s⁻¹,< 10 M⁻¹ s⁻¹,
Ac-H[dQ][Phe(F5)]R-{ACC} (SMILES CC(=O)N[C@@H](Cc1c[nH]cn1)C(=O)N[C@H](CCC(N)=O)C(=O)N[C@@H](Cc1c(F)c(F)c(F)c(F)c1F)C(=O)N[C@@H](CCCNC(=N)N)C(=O)Nc1ccc2c(CC(N)=O)cc(=O)oc2c1),"336,900 M^-1s^-1","1,070 M^-1s^-1",130 M⁻¹ s⁻¹,< 10 M⁻¹ s⁻¹,< 10 M⁻¹ s⁻¹,
Ac-H[dT][Phe(F5)]R-{ACC} (SMILES CC(=O)N[C@@H](Cc1c[nH]cn1)C(=O)N[C@@H](C(=O)N[C@@H](Cc1c(F)c(F)c(F)c(F)c1F)C(=O)N[C@@H](CCCNC(=N)N)C(=O)Nc1ccc2c(CC(N)=O)cc(=O)oc2c1)[C@H](C)O),"729,200 M^-1s^-1",286 M⁻¹ s⁻¹,94 M⁻¹ s⁻¹,< 10 M⁻¹ s⁻¹,< 10 M⁻¹ s⁻¹,kcat Cat L (cathepsin L; [2]): 38.6 s⁻¹; Km (cathepsin L; [3]): 53.1 µM; kcat Cat V (cathepsin V): 0.0178 s⁻¹; kcat/KM Cat V (cathepsin V): 286 M⁻¹ s⁻¹; Km (cathepsin V): 61.4 µM; kcat Cat B (cathepsin B): 0.00673 s⁻¹; kcat/KM Cat B (cathepsin B): 94 M⁻¹ s⁻¹; Km (cathepsin B): 71.5 µM; kcat/KM Cat K (cathepsin K; [2]): < 10 M⁻¹ s⁻¹; kcat/KM Cat S (cathepsin S): < 10 M⁻¹ s⁻¹
Ac-H[dV]T(Bn)R-{ACC} (SMILES CC(=O)N[C@@H](Cc1c[nH]cn1)C(=O)N[C@@H](C(=O)N[C@H](C(=O)N[C@@H](CCCNC(=N)N)C(=O)Nc1ccc2c(CC(N)=O)cc(=O)oc2c1)[C@@H](C)OCc1ccccc1)C(C)C),"158,520 M^-1s^-1",424 M⁻¹ s⁻¹,480 M⁻¹ s⁻¹,130 M⁻¹ s⁻¹,< 10 M⁻¹ s⁻¹,
Ac-H[dV][Phe(2-Cl)]R-{ACC} (SMILES CC(=O)N[C@@H](Cc1c[nH]cn1)C(=O)N[C@@H](C(=O)N[C@@H](Cc1ccccc1Cl)C(=O)N[C@@H](CCCNC(=N)N)C(=O)Nc1ccc2c(CC(N)=O)cc(=O)oc2c1)C(C)C),"5,689,000 M^-1s^-1","11,600 M^-1s^-1","1,360 M^-1s^-1","13,000 M^-1s^-1","2,760 M^-1s^-1",
"Ac-H[dV][Phe(3,4-F2)]R-{ACC} (SMILES CC(=O)N[C@@H](Cc1c[nH]cn1)C(=O)N[C@@H](C(=O)N[C@@H](Cc1ccc(F)c(F)c1)C(=O)N[C@@H](CCCNC(=N)N)C(=O)Nc1ccc2c(CC(N)=O)cc(=O)oc2c1)C(C)C)","6,031,000 M^-1s^-1","10,100 M^-1s^-1","2,520 M^-1s^-1","1,010 M^-1s^-1",580 M⁻¹ s⁻¹,
Ac-H[dV][Phe(3-F)]R-{ACC} (SMILES CC(=O)N[C@@H](Cc1c[nH]cn1)C(=O)N[C@@H](C(=O)N[C@@H](Cc1cccc(F)c1)C(=O)N[C@@H](CCCNC(=N)N)C(=O)Nc1ccc2c(CC(N)=O)cc(=O)oc2c1)C(C)C),"8,432,000 M^-1s^-1","12,600 M^-1s^-1","6,280 M^-1s^-1","5,700 M^-1s^-1",814 M⁻¹ s⁻¹,
Ac-H[dV][Phe(4-F)]R-{ACC} (SMILES CC(=O)N[C@@H](Cc1c[nH]cn1)C(=O)N[C@@H](C(=O)N[C@@H](Cc1ccc(F)cc1)C(=O)N[C@@H](CCCNC(=N)N)C(=O)Nc1ccc2c(CC(N)=O)cc(=O)oc2c1)C(C)C),"6,991,000 M^-1s^-1","14,550 M^-1s^-1","3,100 M^-1s^-1","2,580 M^-1s^-1","1,800 M^-1s^-1",
Ac-H[dV][Phe(F5)]C(Bn)-{ACC} (SMILES CC(=O)N[C@@H](Cc1c[nH]cn1)C(=O)N[C@@H](C(=O)N[C@@H](Cc1c(F)c(F)c(F)c(F)c1F)C(=O)N[C@@H](CSCc1ccccc1)C(=O)Nc1ccc2c(CC(N)=O)cc(=O)oc2c1)C(C)C),"732,900 M^-1s^-1","1,250 M^-1s^-1","1,370 M^-1s^-1",190 M⁻¹ s⁻¹,< 10 M⁻¹ s⁻¹,"kcat Cat L (cathepsin L; [2]): 4.21 s⁻¹; kcat/KM Cat L (cathepsin L; [2]): 732,900 M-1s-1; Km (cathepsin L; [3]): 5.67 µM; kcat Cat V (cathepsin V): 0.00971 s⁻¹; kcat/KM Cat V (cathepsin V): 1,250 M-1s-1; Km (cathepsin V): 7.76 µM; kcat Cat B (cathepsin B): 0.0115 s⁻¹; kcat/KM Cat B (cathepsin B): 1,370 M-1s-1; Km (cathepsin B): 8.19 µM; kcat Cat K (cathepsin K; [2]): 0.00221 s⁻¹; kcat/KM Cat K (cathepsin K; [2]): 190 M⁻¹ s⁻¹; Km (cathepsin K; Table S7, four independent experiments, S.D. below 15%, read-out: KM Cat K): 11.5 µM; kcat/KM Cat S (cathepsin S): < 10 M⁻¹ s⁻¹"
Ac-H[dV][Phe(F5)]C(Meb)-{ACC} (SMILES CC(=O)N[C@@H](Cc1c[nH]cn1)C(=O)N[C@@H](C(=O)N[C@@H](Cc1c(F)c(F)c(F)c(F)c1F)C(=O)N[C@@H](CSCc1ccc(C)cc1)C(=O)Nc1ccc2c(CC(N)=O)cc(=O)oc2c1)C(C)C),"1,476,000 M^-1s^-1","1,740 M^-1s^-1","2,290 M^-1s^-1",< 10 M⁻¹ s⁻¹,< 10 M⁻¹ s⁻¹,
Ac-[Dap][Orn][Phe(3-Cl)]L-{ACC} (SMILES CC(=O)N[C@@H](CN)C(=O)N[C@@H](CCCN)C(=O)N[C@@H](Cc1cccc(Cl)c1)C(=O)N[C@@H](CC(C)C)C(=O)Nc1ccc2c(CC(N)=O)cc(=O)oc2c1),,,,,,"kcat/KM (cathepsin L; [4]): 11,290,000 M^-1s^-1; kcat (cathepsin L; [5]): 41.8 s⁻¹; kcat/KM (cathepsin L; [5]): 11,290,000 M-1s-1; Km (cathepsin L; [6]): 3.7 µM"
Ac-[Dap][Orn][Phe(3-Cl)]R-{ACC} (SMILES CC(=O)N[C@@H](CN)C(=O)N[C@@H](CCCN)C(=O)N[C@@H](Cc1cccc(Cl)c1)C(=O)N[C@@H](CCCNC(=N)N)C(=O)Nc1ccc2c(CC(N)=O)cc(=O)oc2c1),,,,,,"kcat/KM (cathepsin L; [4]): 36,310,000 M^-1s^-1; kcat (cathepsin L; [5]): 195 s⁻¹; kcat/KM (cathepsin L; [5]): 36,310,000 M-1s-1; Km (cathepsin L; [6]): 5.38 µM"
Ac-[Dap][Orn][Phe(3-Cl)][hArg]-{ACC} (SMILES CC(=O)N[C@@H](CN)C(=O)N[C@@H](CCCN)C(=O)N[C@@H](Cc1cccc(Cl)c1)C(=O)N[C@@H](CCCCNC(=N)N)C(=O)Nc1ccc2c(CC(N)=O)cc(=O)oc2c1),,,,,,"kcat/KM (cathepsin L; [4]): 30,500,000 M^-1s^-1; kcat (cathepsin L; [5]): 123 s⁻¹; kcat/KM (cathepsin L; [5]): 30,500,000 M-1s-1; Km (cathepsin L; [6]): 4.21 µM"
